This passage reports Ki results from ChEMBL document CHEMBL1125692 (J Med Chem, 1991).

Molecules are shown by their SMILES. Bounds are passed on as bounds.

The target of assay [1] is T1, D(2) dopamine receptor (Rattus norvegicus, UniProt P61169). The experiment in a line: Displacement of [3H]- spiperone from dopamine receptor D2 of striatal membranes without sodium chloride. (In general: In a radioligand displacement assay an active substance lowers the binding of a labelled ligand.)
Assay [2] has as its target T1, D(2) dopamine receptor. The experiment in a line: Compound was evaluated for binding affinity towards dopamine receptor D2 in striatal membranes, using [3H]- spiperone as radioligand in the presence of sodium chloride. The assay is classed as cell membranes.
Assay [3] deals with T2, Adrenergic receptor alpha-2 (Rattus norvegicus, UniProt P22086+P19328+P22909).
T2 sequence (P22086 whole entry): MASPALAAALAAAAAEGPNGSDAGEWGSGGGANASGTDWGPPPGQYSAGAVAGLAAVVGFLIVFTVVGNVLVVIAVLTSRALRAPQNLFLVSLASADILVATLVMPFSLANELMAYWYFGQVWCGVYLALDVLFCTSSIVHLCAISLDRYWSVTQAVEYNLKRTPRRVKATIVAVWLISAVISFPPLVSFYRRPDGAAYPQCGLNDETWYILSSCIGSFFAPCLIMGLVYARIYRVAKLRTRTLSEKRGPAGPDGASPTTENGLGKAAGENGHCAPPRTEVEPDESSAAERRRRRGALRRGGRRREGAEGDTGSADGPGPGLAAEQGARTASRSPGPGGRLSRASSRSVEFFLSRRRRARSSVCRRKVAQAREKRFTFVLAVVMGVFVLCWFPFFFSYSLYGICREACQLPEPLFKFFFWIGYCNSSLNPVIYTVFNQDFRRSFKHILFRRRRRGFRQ
T2 sequence (P19328 whole entry): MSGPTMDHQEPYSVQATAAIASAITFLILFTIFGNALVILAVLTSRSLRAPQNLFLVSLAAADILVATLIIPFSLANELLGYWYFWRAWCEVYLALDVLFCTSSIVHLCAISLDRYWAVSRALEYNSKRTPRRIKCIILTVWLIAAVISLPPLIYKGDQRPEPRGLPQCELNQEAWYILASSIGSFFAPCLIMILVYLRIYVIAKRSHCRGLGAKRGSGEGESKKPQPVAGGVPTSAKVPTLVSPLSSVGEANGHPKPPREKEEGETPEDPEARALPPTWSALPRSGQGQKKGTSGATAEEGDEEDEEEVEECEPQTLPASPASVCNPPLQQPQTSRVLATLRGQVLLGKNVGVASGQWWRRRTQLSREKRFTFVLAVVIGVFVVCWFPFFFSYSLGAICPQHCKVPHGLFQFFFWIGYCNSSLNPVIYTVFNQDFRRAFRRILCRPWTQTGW
T2 sequence (P22909 whole entry): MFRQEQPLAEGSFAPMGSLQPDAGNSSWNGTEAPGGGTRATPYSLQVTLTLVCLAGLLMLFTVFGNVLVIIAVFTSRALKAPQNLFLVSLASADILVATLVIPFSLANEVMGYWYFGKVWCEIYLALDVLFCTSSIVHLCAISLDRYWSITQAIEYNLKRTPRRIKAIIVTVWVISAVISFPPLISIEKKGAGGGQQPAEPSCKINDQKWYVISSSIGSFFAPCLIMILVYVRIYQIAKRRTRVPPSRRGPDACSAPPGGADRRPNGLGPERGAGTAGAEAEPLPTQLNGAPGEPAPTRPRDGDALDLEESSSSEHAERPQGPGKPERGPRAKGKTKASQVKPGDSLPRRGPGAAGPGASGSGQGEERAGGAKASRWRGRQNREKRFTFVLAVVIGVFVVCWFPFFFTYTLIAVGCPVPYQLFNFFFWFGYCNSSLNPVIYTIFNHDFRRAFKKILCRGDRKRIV
The experiment in a line: binding affinity towards alpha-2 adrenergic receptor, using [3H]- atipamezole as radioligand from rat frontal cortex membranes. It counts as tissue-based.

T1 sequence (P61169 whole entry): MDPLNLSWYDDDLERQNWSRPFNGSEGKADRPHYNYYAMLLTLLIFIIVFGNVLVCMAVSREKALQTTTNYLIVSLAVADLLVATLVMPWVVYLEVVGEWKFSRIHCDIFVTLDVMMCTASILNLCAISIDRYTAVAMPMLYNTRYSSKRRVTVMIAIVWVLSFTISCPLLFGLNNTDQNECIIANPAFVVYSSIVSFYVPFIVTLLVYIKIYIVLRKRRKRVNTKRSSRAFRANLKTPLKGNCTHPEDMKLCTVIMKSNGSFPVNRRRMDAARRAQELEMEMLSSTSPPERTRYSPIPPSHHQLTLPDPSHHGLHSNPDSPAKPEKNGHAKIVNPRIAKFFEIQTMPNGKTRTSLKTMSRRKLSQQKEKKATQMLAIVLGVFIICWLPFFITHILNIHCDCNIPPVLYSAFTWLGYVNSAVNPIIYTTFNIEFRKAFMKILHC

The Ki is the dissociation constant of the complex between target and ligand, obtained from inhibition or displacement. `CCN1CCC[C@@H]1CNC(=O)c1cc(CCF)cc(OC)c1OC`: the Ki on D(2) dopamine receptor [1] is above 10000 nM. Same read-out and setting: to `CCCc1cc(OC)c(OC)c(C(=O)NC[C@@H]2CCCN2CC)c1O` belongs 1.28 nM; to `CCN1CCC[C@H]1CNC(=O)c1cccc(OC)c1OC`, 66 nM. Turning to `CCN1CCC[C@H]1CNC(=O)c1cc(Br)cc(OC)c1OC`, the Ki turned out to be 0.2 nM on D(2) dopamine receptor [2] and 0.76 nM at D(2) dopamine receptor [1].

As to `CCN1CCC[C@H]1CNC(=O)c1cc(I)cc(OC)c1OC` [EPIDEPRIDE], the Ki on D(2) dopamine receptor [2] came to 0.27 nM; in assay [3], 5 nM. With `CCN1CCC[C@H]1CNC(=O)c1cc(CCCF)cc(OC)c1OC`, the Ki came out at 1.17 nM at D(2) dopamine receptor [2] and 4.4 nM at D(2) dopamine receptor [1]. In the case of `CCN1CCC[C@H]1CNC(=O)c1c(O)c(CCCF)cc(OC)c1OC`, the results for the Ki (at D(2) dopamine receptor [2]; in assay [3]; on D(2) dopamine receptor [1]) were 0.25 nM, 11.1 nM and 0.8 nM, respectively. Regarding `CCN1CCC[C@H]1CNC(=O)c1cc(CCF)cc(OC)c1OC`, the values for the Ki on D(2) dopamine receptor [2] and on D(2) dopamine receptor [1] were 1.41 nM and 5.27 nM, respectively. `CCN1CCC[C@@H]1CNC(=O)c1c(O)c(CCCF)cc(OC)c1OC` yielded a Ki on D(2) dopamine receptor [1] above 10000 nM. Take `CCN1CCC[C@H]1CNC(=O)c1c(O)c(CCF)cc(OC)c1OC`: the Ki stood at 0.24 nM at D(2) dopamine receptor [2], 9.5 nM in assay [3] and 0.77 nM at D(2) dopamine receptor [1]. `CCCc1cc(OC)c(OC)c(C(=O)NC[C@@H]2CCCN2CC)c1` yielded a Ki at D(2) dopamine receptor [1] of 6.98 nM.
